Laboratory results taken from ChEMBL document CHEMBL4311969, “Polygala tenuifolia-Acori tatarinowii herbal pair as an inspiration for substituted cinnamic α-asaronol esters: Design, synthesis, anticonvulsant activity, and inhibition of lactate dehydrogenase study” (Eur J Med Chem, 2019).
Several values for one entry are separate records, joined by “and”; a condition that tells them apart may be missing. Equal values may be shown once. Activity calls are given as the source filed them. No cut-off for these calls is given here.

Experiments:
Mus musculus [1] = experiment: Anticonvulsant activity in Kunming mouse assessed as reduction in Sc3-MP-induced clonic seizure rate at 300 mg/kg, ip administered 0.5 hrs before Sc3-MP stimulation relative to control; format: functional; set-up: scale not given: the % may be the effect or the level left
Mus musculus [2] = experiment: Anticonvulsant activity in Kunming mouse assessed as reduction in Sc3-MP-induced tonic seizure rate at 300 mg/kg, ip administered 0.5 hrs before Sc3-MP stimulation relative to control; format: functional; set-up: scale not given: the % may be the effect or the level left
Mus musculus [3] = experiment: Anticonvulsant activity in Kunming mouse assessed as MES-induced hind limb extension at 100 mg/kg, ip administered 0. 5 to 2 hrs before MES stimulation; format: functional, organism-based
[4] = Neurotoxicity against Kunming mouse assessed as time remained in rod at 100 mg/kg, ip administered 0.5 to 2 hrs by rotarod test; format: toxicity, organism-based; settings: in vivo
Mus musculus [5] = experiment: Anticonvulsant activity in Kunming mouse assessed as MES-induced hind limb extension at 50 mg/kg, ip administered 0.5 to 4 hrs before MES stimulation relative to control; format: functional
Mus musculus [6] = experiment: Anticonvulsant activity in Kunming mouse assessed as MES-induced hind limb extension at 50 mg/kg, ip administered 0.5 and 2 hrs before MES stimulation relative to control; format: functional
Mus musculus [7] = experiment: Anticonvulsant activity in Kunming mouse assessed as reduction in ScPTZ-induced seizure at 300 mg/kg, ip administered 0.25 to 2 hrs before ScPTZ stimulation relative to control; format: functional; set-up: scale not given: the % may be the effect or the level left
Mus musculus [8] = experiment: Anticonvulsant activity in Kunming mouse assessed as reduction in ScPTZ-induced seizure at 100 mg/kg, ip administered 0.25 to 2 hrs before ScPTZ stimulation relative to control; format: functional
Mus musculus [9] = experiment: Anticonvulsant activity in Kunming mouse assessed as reduction in ScPTZ-induced seizure at 100 mg/kg, ip administered 0.25 and 1 hrs before ScPTZ stimulation relative to control; format: functional; set-up: scale not given: the % may be the effect or the level left
Mus musculus [10] = experiment: Anticonvulsant activity in Kunming mouse assessed as reduction in ScPTZ-induced clonic seizure at 300 mg/kg, ip administered 0.5 hrs before ScPTZ stimulation relative to control; format: functional; set-up: scale not given: the % may be the effect or the level left
Mus musculus [11] = experiment: Anticonvulsant activity in Kunming mouse assessed as reduction in ScPTZ-induced clonic seizure at 100 mg/kg, ip administered 0.5 hrs before ScPTZ stimulation relative to control; format: functional; set-up: scale not given: the % may be the effect or the level left
Mus musculus [12] = experiment: Anticonvulsant activity in Kunming mouse assessed as reduction in ScPTZ-induced tonic seizure rate at 300 mg/kg, ip administered 0.5 hrs before ScPTZ stimulation relative to control; format: functional; set-up: scale not given: the % may be the effect or the level left
Mus musculus [13] = experiment: Anticonvulsant activity in Kunming mouse assessed as reduction in ScPTZ-induced tonic seizure rate at 100 mg/kg, ip administered 0.5 hrs before ScPTZ stimulation relative to control; format: functional; set-up: scale not given: the % may be the effect or the level left
Mus musculus [14] = experiment: Anticonvulsant activity in ip dosed Kunming mouse assessed as MES-induced hind limb extension administered 0.5 hrs before MES stimulation; format: functional
Mus musculus [15] = experiment: Anticonvulsant activity in ip dosed Kunming mouse assessed as reduction in ScPTZ-induced seizure administered 0.5 hrs before ScPTZ stimulation; format: functional
Mus musculus [16] = experiment: Anticonvulsant activity in Kunming mouse assessed as reduction in Sc3-MP-induced seizure ip dosed measured at 0.5 hrs before Sc3-MP stimulation; format: functional
Mus musculus [17] = experiment: […] activity in ip dosed Kunming mouse assessed as reduction in formalin-induced paw licking administered 0.5 hrs before formalin stimulation; format: functional
[18] = Neurotoxicity against ip dosed Kunming mouse assessed as time remained in rod measured at 0.5 hrs by rotarod test; format: toxicity, organism-based; settings: in vivo
[19] = Protective index, ratio of TD50 for neurotoxicity against ip dosed Kunming mouse assessed as time remained in rod measured at 0.5 hrs by rotarod test to ED50 for anticonvulsant activity in ip dosed Kunming mouse assessed as MES-induced hind limb extension administered 0.5 hrs; format: toxicity, organism-based; settings: in vivo, read-out: PI
[20] = (§1) Protective index, ratio of TD50 for neurotoxicity against ip dosed Kunming mouse assessed as time remained in rod measured at 0.5 hrs by rotarod test to ED50 for anticonvulsant activity in ip dosed Kunming mouse assessed as reduction in ScPTZ-induced seizure administered 0.5 hrs before ScPTZ stimulation; format: toxicity, organism-based; settings: in vivo, read-out: PI
[21] = as §1, with “Sc3-MP-induced” for “ScPTZ-induced”, “Sc3-MP” for “ScPTZ”; format: toxicity, organism-based; settings: in vivo, read-out: PI
[22] = as §1, with “formalin-induced paw licking” for “ScPTZ-induced seizure”, “formalin” for “ScPTZ”; format: toxicity, organism-based; settings: in vivo, read-out: PI
Homo sapiens [23] = species: Homo sapiens; experiment: Inhibition of human LDH1 at 0.5 mM using sodium pyruvate as substrate by UV-VIS spectrophotometry method relative to control
Homo sapiens [24] = species: Homo sapiens; experiment: Inhibition of human LDH5 at 0.5 mM using sodium pyruvate as substrate by UV-VIS spectrophotometry method relative to control
Mus musculus [25] = experiment: Anticonvulsant activity in Kunming mouse assessed as MES-induced hind limb extension at 100 mg/kg, ip administered 0. 5 hrs before MES stimulation relative to control; format: functional
Mus musculus [26] = experiment: Anticonvulsant activity in Kunming mouse assessed as MES-induced hind limb extension at 100 mg/kg, ip administered 0. 5 to 4 hrs before MES stimulation relative to control; format: functional
Mus musculus [27] = experiment: Anticonvulsant activity in Kunming mouse assessed as reduction in ScPTZ-induced mortality rate at 300 mg/kg, ip administered 0.5 hrs before ScPTZ stimulation relative to control; format: functional; set-up: scale not given: the % may be the effect or the level left
Mus musculus [28] = experiment: Anticonvulsant activity in Kunming mouse assessed as reduction in Sc3-MP-induced seizure at 300 mg/kg, ip administered 0.25 and 1 hrs before Sc3-MP stimulation relative to control; format: functional, organism-based
Mus musculus [29] = experiment: Anticonvulsant activity in Kunming mouse assessed as reduction in Sc3-MP-induced seizure at 300 mg/kg, ip administered 0.5 hrs before Sc3-MP stimulation relative to control; format: functional; set-up: scale not given: the % may be the effect or the level left
Mus musculus [30] = experiment: Anticonvulsant activity in Kunming mouse assessed as MES-induced hind limb extension at 100 mg/kg, ip administered 3 hrs before MES stimulation; format: functional, organism-based
Mus musculus [31] = experiment: Anticonvulsant activity in Kunming mouse assessed as reduction in Sc3-MP-induced mortality rate at 300 mg/kg, ip administered 0.5 hrs before Sc3-MP stimulation relative to control; format: functional; set-up: scale not given: the % may be the effect or the level left
Mus musculus [32] = experiment: Anticonvulsant activity in Kunming mouse assessed as reduction in ScPTZ-induced seizure at 100 mg/kg, ip administered 0.5 hrs before ScPTZ stimulation relative to control; format: functional; set-up: scale not given: the % may be the effect or the level left
Homo sapiens [33] = species: Homo sapiens; experiment: Inhibition of human LDH1 at 0.5 mM using sodium pyruvate as substrate measured for 60 sec for every 5 mins by LC/MS-MS analysis
Homo sapiens [34] = species: Homo sapiens; experiment: Inhibition of human LDH5 at 0.5 mM using sodium pyruvate as substrate measured for 60 sec for every 5 mins by LC/MS-MS analysis
[35] = Drug metabolism in Sprague-Dawley rat assessed as retention time by HPLC/MS analysis; format: ADME

Row | SMILES | Activity (Mus musculus [1]) | Activity (Mus musculus [2]) | Activity (Mus musculus [3]) | Activity [4] | Activity (Mus musculus [7]) | Activity (Mus musculus [8]) | Activity (Mus musculus [10]) | Activity (Mus musculus [11]) | Activity (Mus musculus [12]) | Activity (Mus musculus [13]) | ED50 (Mus musculus [14]) | ED50 (Mus musculus [15]) | ED50 (Mus musculus [16]) | ED50 (Mus musculus [17]) | TD50 at 0.5 h [18] | selectivity ratio at 0.5 h [19] | selectivity ratio at 0.5 h [20] | selectivity ratio at 0.5 h [21] | selectivity ratio at 0.5 h [22] | Activity (Mus musculus [26]) | further results
1 | COc1cc(OC)c(OC)cc1/C=C/COC(=O)/C=C/c1ccc(OC)c(OC)c1OC | 100% | 75% | Active | Non-Toxic | 50% | inactive | 100% | 100% | 25% | 100% | 33.4 mg/kg and 75.1 µmol/kg | 203 mg/kg and 456 µmol/kg | > 300 mg/kg and > 675 µmol/kg | 78.4 mg/kg and 176 µmol/kg | > 1000 mg/kg and > 2250 µmol/kg | > 29.9 | > 4.9 | 3.3 | > 12.8 | 25 - 100% | Activity (Mus musculus [5]): 50%; Activity (Mus musculus [6]): 50%; Activity (Mus musculus [9]): 75%; inhibition (Homo sapiens [23]): 7%; inhibition (Homo sapiens [24]): 8%; Activity (Mus musculus [25]): 100%
2 | COc1cc(OC)c(OC)cc1/C=C/COC(=O)/C=C/c1ccc(Cl)cc1 | 100% | 50% | Active | Non-Toxic | 50% | inactive | 100% | 100% | 25% | 100% | 137 µmol/kg and 53.4 mg/kg | 142 mg/kg and 364 µmol/kg | > 200 mg/kg and > 514 µmol/kg | 108 mg/kg and 278 µmol/kg | > 2570 µmol/kg and > 1000 mg/kg | > 18.7 | > 7.1 | > 6.2 | > 9.3 | 25 - 100% | Activity (Mus musculus [5]): 50%; Activity (Mus musculus [9]): 75%; Activity (Mus musculus [27]): 0%; Activity (Mus musculus [28]): Active; Activity (Mus musculus [29]): 50%; inhibition (Homo sapiens [23]): < 5%; inhibition (Homo sapiens [24]): < 9%
3 | COc1cc(OC)c(OC)cc1/C=C/COC(=O)/C=C/c1ccccc1Cl | 100% | 50% | Active | Non-Toxic | 50% | inactive | 100% | 100% | 25% | 100% | 151 µmol/kg and 58.7 mg/kg | 150 mg/kg and 385 µmol/kg | 248 mg/kg and 639 µmol/kg | 101 mg/kg and 260 µmol/kg | > 2570 µmol/kg and > 1000 mg/kg | > 17 | > 6.7 | > 4 | > 9.9 | 25 - 100% | Activity (Mus musculus [30]): Active; Activity (Mus musculus [5]): 50%; Activity (Mus musculus [6]): 75%; Activity (Mus musculus [9]): 75%; Activity (Mus musculus [27]): 0%; Activity (Mus musculus [28]): Active; Activity (Mus musculus [29]): 50%; Activity (Mus musculus [31]): 0%; inhibition (Homo sapiens [23]): < 5%; inhibition (Homo sapiens [24]): < 9%
4 | COc1cc(OC)c(OC)cc1/C=C/COC(=O)/C=C/c1cccc(Br)c1 | 100% | 50% | Active | Non-Toxic | 50% | inactive | 100% | 100% | 25% | 100% | 175 µmol/kg and 75.7 mg/kg | > 200 mg/kg and > 462 µmol/kg | 215 mg/kg and 497 µmol/kg | 113 mg/kg and 260 µmol/kg | > 2310 µmol/kg and > 1000 mg/kg | > 13.2 | 5 | > 4.6 | > 8.9 | 25 - 100% | Activity (Mus musculus [30]): Active; Activity (Mus musculus [6]): inactive; Activity (Mus musculus [9]): 75%; Activity (Mus musculus [27]): 0%; Activity (Mus musculus [28]): Active; Activity (Mus musculus [29]): 50%; Activity (Mus musculus [31]): 0%; inhibition (Homo sapiens [23]): < 5%; inhibition (Homo sapiens [24]): < 9%
5 | COc1cc(OC)c(/C=C/C(=O)OC/C=C/c2cc(OC)c(OC)cc2OC)c(OC)c1 | 100% | 75% | Active | Non-Toxic | 50% | inactive | 100% | 100% | 0% | 100% | 157 µmol/kg and 69.8 mg/kg | 212 mg/kg and 476 µmol/kg | > 300 mg/kg and > 675 µmol/kg | 99 mg/kg and 223 µmol/kg | > 2250 µmol/kg and > 1000 mg/kg | > 14.3 | > 4.7 | 3.3 | > 10.1 | 25 - 100% | Activity (Mus musculus [30]): Active; Activity (Mus musculus [5]): 50%; Activity (Mus musculus [32]): 100%; Activity (Mus musculus [31]): 25%; inhibition (Homo sapiens [33]): Active; inhibition (Homo sapiens [34]): Active
6 | COc1cccc(/C=C/C(=O)OC/C=C/c2cc(OC)c(OC)cc2OC)c1 | 100% | 75% | Active | Non-Toxic | 50% | inactive | 100% | 100% | 50% | 100% | 72.9 mg/kg and 190 µmol/kg | 247 mg/kg and 643 µmol/kg | 249 mg/kg and 647 µmol/kg | > 100 mg/kg and > 260 µmol/kg | > 1000 mg/kg and > 2600 µmol/kg | > 13.7 | > 4.1 | > 4 | > 8.9 | 25 - 100% | Activity (Mus musculus [6]): inactive; Activity (Mus musculus [27]): 0%; Activity (Mus musculus [31]): 25%; inhibition (Homo sapiens [23]): inactive; inhibition (Homo sapiens [24]): inactive
7 | COc1cc(OC)c(OC)cc1/C=C/CO |  |  | Active | Non-Toxic |  |  |  |  |  |  | 277 µmol/kg and 62 mg/kg |  |  |  | 3070 µmol/kg and 689 mg/kg | 11.1 |  |  |  |  | Retention_time [35]: 67.5 min
